In patent US20230348415A1, “BISPECIFIC ANTAGONISTS OF RETINOL-BINDING PROTEIN 4 THAT STABILIZE TRANSTHYRETIN TETRAMERS, THEIR PREPARATION, AND USE IN THE TREATMENT OF COMMON AGE-RELATED COMORBIDITIES” (The Trustees of Columbia University in the City of New York, priority 2020, published 2023):
“Also recorded” adds a separate entry of the source.

Legend:
[1] = target: RBP4-TTR interaction (Homo sapiens (Human), UniProt P02753); experiment: HTRF RBP4-TTR interaction assay; type: biochemical; details: 1 μM retinol; read-out: RBP4-TTR HTRF IC50
Description: HTRF Cryptate labeling kit from CisBio (Cisbio, cat #62EUSPEA, Bedfored, MA) was used to label TTR with Eu^3+ Cryptate. The assay was performed in a final assay volume of 16 μl in the buffer that contained 10 mM Tris-HCl pH 7.5, 1 mM DTT, 0.05% NP-40, 0.05% Prionex, 6% glycerol, and 400 mM KF. […] All of the reactions were performed under dim red light in the dark. The plates were read in the SpectraMax M5e Multimode Plate Reader (Molecular Devices, Sunnyvale, CA) after the overnight incubation at 4° C. […] The HTRF signal was expressed as the ratio of fluorescence intensity: Flu668/Flu620×10,000.

[2] = target: TTR (Homo sapiens (Human), UniProt P02766); experiment: Acid-induced TTR aggregation assay; type: biochemical; details: 50 μM compound, pH 4.0, 72 h, 37° C.
Description: FIG. 6. […] After incubation in the presence of 50 μM Tafamidis, 50 μM Benzbromarone and 50 μM (±)-44, samples were crosslinked and subjected to SDS-PAGE followed by western blotting with TTR antibodies. The representative blot of at least three independent experiments is presented. (B, C), Bar graphs represent pixel volumes of TTR high molecular weight aggregates (B) and monomers (C). The vertical axes represent the ratio of pixel volume means±S.D. of the scanned bands on the immunoblots in arbitrary units. Statistical significance was determined by one-way ANOVA with Holm-Sidak post hoc test; *, p≤0.05; **, p≤0.01; ***, p≤0.001; ****, p≤0.0001 compare to TTR aggregation (pH 4.0)+DMSO group, #, p≤0.05; ##, p≤0.01; ###, p≤0.001; ####, p≤0.0001 compare to TTR without aggregation (pH 7.5) group.
The ability of test compounds to prevent TTR aggregation was evaluated under the acidic conditions that favor TTR aggregation and fibril formation. […] At the end of the incubation, 3.5 μl 500 mM sodium phosphate (Sigma #S5136) buffer pH=8.0 was added to each sample for neutralization and 0.6 μl 5% CHAPS (Sigma #C5070) as a detergent to prevent reassociation of protein. The cross-linking was performed by adding 1.5 μl 5% glutaraldehyde solution (Sigma #G6257). After 4 min, the reaction was stopped by the addition of 2.5 μl freshly made 5% NaBH4. Samples were subjected to TTR western blotting with prealbumin antibodies (1:500; Dako #A0002). Band intensity for TTR monomer and TTR aggregates was quantified from scanned images of the blots.

[3] = Metabolic stability and clearance in cynomolgus monkey liver microsomes; type: in vitro ADME; details: 30 minute incubation
Description: The results of metabolic stability determinations for novel compounds and testosterone (positive control) were conducted in the presence of human, rat, mouse, and monkey liver microsomes. Values shown are percent of parent remaining after a 30 minute incubation. All measurements were done in duplicate. Assay results for testosterone were within an acceptable range.
Mixed-gender human liver microsomes (Lot #1710084), male Sprague-Dawley rat liver microsomes (Lot #1610290), male CD-1 mouse liver microsomes (Lot #1710069), and male Cynomolgous liver microsomes (Lot #1510193) were purchased from XenoTech. The reaction mixture, minus NADPH, was prepared as described below. The test article was added into the reaction mixture at a final concentration of 1 μM. The control compound, testosterone, was run simultaneously with the test article in a separate reaction. An aliquot of the reaction mixture (without cofactor) was equilibrated in a shaking water bath at 37° C. for 3 minutes. The reaction was initiated by the addition of cofactor, and the mixture was incubated in a shaking water bath at 37° C. Aliquots (100 μL) were withdrawn at 0, 10, 20, 30, and 60. […] Half-lives were calculated using GraphPad software, fitting to a single-phase exponential decay equation.

[4] = target: PPARγ (Homo sapiens (Human), UniProt P37231); experiment: PPARγ agonist activity
Sequence of PPARγ (P37231 whole entry, species assumed): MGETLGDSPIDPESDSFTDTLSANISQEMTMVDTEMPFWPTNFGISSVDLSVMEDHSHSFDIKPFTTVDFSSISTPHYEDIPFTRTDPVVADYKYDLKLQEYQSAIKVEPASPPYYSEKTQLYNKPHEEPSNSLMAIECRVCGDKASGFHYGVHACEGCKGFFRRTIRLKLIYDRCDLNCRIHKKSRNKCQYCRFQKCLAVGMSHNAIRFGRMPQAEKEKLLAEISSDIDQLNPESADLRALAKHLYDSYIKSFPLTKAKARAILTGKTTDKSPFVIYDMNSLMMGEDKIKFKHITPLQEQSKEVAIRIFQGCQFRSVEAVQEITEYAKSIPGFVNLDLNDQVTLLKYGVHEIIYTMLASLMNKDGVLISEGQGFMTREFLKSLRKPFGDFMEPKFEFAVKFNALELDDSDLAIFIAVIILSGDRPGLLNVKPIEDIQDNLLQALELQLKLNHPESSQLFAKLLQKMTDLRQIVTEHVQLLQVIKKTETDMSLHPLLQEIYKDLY

[5] = system: Abca4−/−/Rdh8−/− mice; experiment: Photoreceptor preservation (ONL thickness) in Abca4−/−/Rdh8−/− mice; type: in vivo, mouse; details: 25 mg/kg daily in chow, 10 weeks
Description: FIG. 11. Photoreceptor protection in (±)-44-treated Rdh8^−/−Abca4^−/− mice. […] Data analyzed by two-way ANOVA with Sidak post hoc test.
(±)-44 was formulated into a Picolab 5053 chow to ensure a daily dosing of 25 mg/kg of (±)-44. Long-term 10-week dosing of the compound formulated into a chow was conducted in Abca4^−/−/Rdh8-mice. The age-matched control group of wild-type C57BL/6J mice was kept on a standard Picolab 5053 chow. After 10 weeks of dosing, whole eyes were collected and fixed in the 2% glutaraldehyde/4% paraformaldehyde. Eyes were embedded in paraffin and sectioned at a thickness of 8 μm. Sections were counterstained using hematoxylin and eosin (H&E). Morphologic observations and light microscopy was performed.

## Cc1cc(C(=O)O)nc(N2CCC(COc3ccccc3C(F)(F)F)C2)n1 (racemic) [Compound (±)-44, (±)-6-Methyl-2-(3-((2-(trifluoromethyl)phenoxy)methyl)pyrrolidin-1-yl)pyrimidine-4-carboxylic Acid]
[1]
  IC50: 250 nM
[2]
  formation of high molecular weight TTR species: reduces the formation of high molecular weight TTR forms; also recorded: significantly reduced the formation of high molecular weight TTR species
[2]; vs DMSO
  TTR monomer band intensities: Significant increase
  fold reduction in formation of high molecular weight aggregates: 4.7 fold
[3]
  Liver Microsomal Stability (% remaining at 30 min), cyno LM: 103%
[4]
  IC50: > 100000 nM
  PPARγ agonist activity: devoid of PPARγ agonist activity
[5]
  photoreceptor protection (ONL thickness): partially reversed; also recorded: Photoreceptor protection is evident at multiple points in the superior retina
